This note sets out measurements from article PMC3083694, “Effects of Intermediates between Vitamins K2 and K3 on Mammalian DNA Polymerase Inhibition and Anti-Inflammatory Activity” (International Journal of Molecular Sciences, 2011).

Molecules are shown by their SMILES. Where only a bound is given, the exact number is not on record here.

Broadly, the IC50 is the concentration that inhibits the measured activity by half.

For assay [1], the system named is nuclear translocation of NF-κB p65 in RAW264.7 cells. The assay can be described thus: LPS-induced nuclear translocation of NF-κB p65 (Western blot). The format is cell-based, mouse. Conditions: 10 μM MK-2 30 min, then 100 ng/mL LPS 30 min, LPS alone 4.47-fold. The method, then: RAW264.7 cells on a 6-well plate at 5 × 10^5 cells/well were incubated with 10 μM of MK-2 or DMSO (1 μL/mL) as a vehicle control for 30 min, followed by treatment with 100 ng/mL of LPS for 30 min. After treatment, cells were harvested with lysis buffer consisting of 10 mM Hepes (pH 7.9), 10 mM KCl, 1.5 mM MgCl2 and 0.5 mM DTT containing protease inhibitors (1 mM phenylmethylsulfonyl fluoride [PMSF], 5 μg/mL of leupeptin and 5 μg/mL of aprotinin) and phosphatase inhibitors (10 mM NaF and 1 mM Na3VO4) and stood on ice for 15 min with occasional mixing. The mixture was centrifuged at 1000 × g for 10 min at 4 °C. […] The protein concentration was measured by using a bicinchoninic acid (BCA) assay kit in accordance with the manufacturer’s protocol. […]
The nuclear proteins (30–50 μg of protein) were boiled in a quarter-volume of sample buffer (1 M Tris-HCl [pH 7.5], 640 mM 2-mercaptoethanol, 0.2% bromphenol blue, 4% SDS and 20% glycerol) and then separated on 10% SDS polyacrylamide gels. […] The protein-antibody complex was visualized with ChemiLumiONE (Nacalai Tesque, Kyoto, Japan) and detected using an Image Reader (LAS-3000 Imaging System, Fuji Photo Film, Tokyo, Japan). The intensity of each band was analyzed using ImageJ, which was developed at the National Institute of Health.

Another assay deals with T1, E. coli DNA polymerase I (Escherichia coli, UniProt P00582).
T1 construct: purchased
T1 sequence (P00582 324-928): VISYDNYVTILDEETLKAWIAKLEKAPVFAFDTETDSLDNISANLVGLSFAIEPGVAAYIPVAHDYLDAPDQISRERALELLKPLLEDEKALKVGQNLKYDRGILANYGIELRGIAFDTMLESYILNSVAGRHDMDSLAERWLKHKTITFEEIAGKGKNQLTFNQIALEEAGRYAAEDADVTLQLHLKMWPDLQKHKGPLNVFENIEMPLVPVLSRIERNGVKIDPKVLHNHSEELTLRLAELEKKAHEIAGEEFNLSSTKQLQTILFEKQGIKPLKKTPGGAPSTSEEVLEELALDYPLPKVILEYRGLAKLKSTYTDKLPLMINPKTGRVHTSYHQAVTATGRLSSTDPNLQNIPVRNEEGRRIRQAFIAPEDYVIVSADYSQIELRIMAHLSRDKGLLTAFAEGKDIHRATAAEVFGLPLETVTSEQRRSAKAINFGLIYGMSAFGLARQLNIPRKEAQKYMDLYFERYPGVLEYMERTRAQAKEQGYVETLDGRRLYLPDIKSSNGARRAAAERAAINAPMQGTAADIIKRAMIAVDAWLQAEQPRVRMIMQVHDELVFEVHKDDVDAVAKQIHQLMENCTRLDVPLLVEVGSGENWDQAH
The assay can be described thus: DNA polymerase activity assay, E. coli pol I. The format is biochemical. To be noted: prokaryotic pol; read-out: IC50 Value of MK-2, E. coli DNA polymerase I. As for the experimental part:
Pols from mammals, a fish (cherry salmon), an insect (fruit fly) and a plant (cauliflower) were purified, and prokaryotic pols and other DNA metabolic enzymes, such as T7 RNA polymerase, T4 polynucleotide kinase and bovine deoxyribonuclease I, were purchased as described in our previous report. The activities of all pols and other DNA metabolic enzymes were measured as described in previous reports.
The components of the pol assay were poly(dA)/oligo(dT)18 and dTTP as the DNA template-primer and 2′-deoxyribonucleoside 5′-triphosphate (dNTP) substrate, respectively. VK2, VK3, and their synthesized derivatives (i.e., MK-3, MK-2 and MK-1) were dissolved in dimethyl sulfoxide (DMSO) at various concentrations and sonicated for 30 s. The sonicated samples (4 μL) were mixed with 16 μL of each pol enzyme (final amount, 0.05 units) in 50 mM Tris-HCl (pH 7.5) containing 1 mM dithiothreitol, 50% glycerol and 0.1 mM EDTA, and kept at 0 °C for 10 min. […] Activity without the inhibitor was considered to be 100%, and the activity remaining at each concentration of inhibitor was determined relative to this value. […]

For `CC(C)=CCC/C(C)=C/CC1=C(C)C(=O)c2ccccc2C1=O` [MK-2], in assay [1], the “LPS-stimulated nuclear translocation of NF-κB p65 relative to treatment without LPS” value is listed as 2.04 fold. At E. coli DNA polymerase I, the half-inhibitory concentration (IC50) is > 200 µM.
